“And” between values parts separate entries of the source, which are not always exact repeats. Equal values may be shown once.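 Test compounds were applied to cells in 96-well plates for 48 hours at 5 doses. GI50: concentration for 50% inhibition of growth. TGI is the concentration that stops growth completely.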
What was measured:
Test in all cases: NCI-60 cell line screen, 48 h
A498 renal = tested on: A498 renal
A549 NSCLC = tested on: A549 NSCLC
CCRF-CEM leukemia = tested on: CCRF-CEM leukemia
HL-60(TB) leukemia = tested on: HL-60(TB) leukemia
NCI-H522 lung = tested on: NCI-H522 lung
RXF 393 renal = tested on: RXF 393 renal
SF-295 CNS = tested on: SF-295 CNS
SNB-19 CNS = tested on: SNB-19 CNS
UO-31 renal = tested on: UO-31 renal
MCF7 breast = tested on: MCF7 breast
PC-3 prostate = tested on: PC-3 prostate
NCI/ADR-RES ovarian = tested on: NCI/ADR-RES ovarian
T-47D breast = tested on: T-47D breast

Structure (SMILES) | TGI (A498 renal) [µM] | TGI (A549 NSCLC) | TGI (CCRF-CEM leukemia) [µM] | TGI (HL-60(TB) leukemia) | TGI (NCI-H522 lung) [µM] | TGI (RXF 393 renal) [µM] | TGI (SF-295 CNS) | TGI (SNB-19 CNS) | TGI (UO-31 renal) | TGI (MCF7 breast) | TGI (PC-3 prostate) [µM] | TGI (NCI/ADR-RES ovarian) [µM] | TGI (T-47D breast) [µM] | GI50 (A498 renal) [µM] | GI50 (HL-60(TB) leukemia) [µM] | GI50 (MCF7 breast) [µM] | GI50 (RXF 393 renal) [µM] | GI50 (SF-295 CNS) [µM] | GI50 (SNB-19 CNS) [µM] | GI50 (UO-31 renal) [µM]
O=C1N(Cl)C(=O)C(c2ccc(Cl)cc2)(c2ccc(Cl)cc2)N1Cl | > 100 | > 100 µM | 60.9 | > 100 µM | > 100 | 84.8 | > 100 µM | > 100 µM | > 100 µM |  |  |  |  |  |  |  |  |  |  | 
S=C1NCCN1 |  | > 100 µM | > 100 | > 100 µM | > 100 |  | > 100 µM | > 100 µM | > 100 µM |  |  |  |  |  |  |  |  |  |  | 
C[n+]1c2ccccc2c(NCC(=O)O)c2ccccc21 | > 100 | > 100 µM |  | > 100 µM | > 100 | > 100 | > 100 µM | > 100 µM | > 100 µM |  |  |  |  |  |  |  |  |  |  | 
COc1cc2c(c(OC)c1O)-c1ccc(SC)c(=O)cc1C(NC(C)=O)CC2 (stereo not given) | 30.9 | > 100 µM | > 100 |  |  | > 100 | 0.0868 µM | > 100 µM | > 100 µM |  |  |  |  |  |  |  |  |  |  | 
S=c1nc2sc3c(c2c(Nc2ccc(Cl)cc2)[nH]1)CCCC3 | > 100 |  | > 100 | > 100 µM | > 100 | > 100 | > 100 µM | > 100 µM | > 100 µM | > 100 µM | > 100 |  |  |  |  |  |  |  |  | 
COc1cc2c(cc1OC)[C@@H]1[C@H](C#N)C(=O)C(C)(C)N1CC2 | > 100 | > 100 µM | > 100 | > 100 µM | > 100 |  | > 100 µM | > 100 µM | > 100 µM | > 100 µM | > 100 | > 100 |  |  |  |  |  |  |  | 
CN(CC(=O)N1CC(CCl)c2ccc([N+](=O)[O-])cc21)CC(=O)N1CC(CCl)c2ccc([N+](=O)[O-])cc21 (stereo not given) | > 100 | > 100 µM | > 100 | > 100 µM | > 100 |  | > 100 µM | > 100 µM | > 100 µM | > 100 µM | > 100 | > 100 |  |  |  |  |  |  |  | 
CC1(C)CCc2ccc(OCCC(=O)O)cc2O1 |  | > 100 µM | > 100 | > 100 µM | > 100 |  | > 100 µM |  | > 100 µM |  |  |  |  |  |  |  |  |  |  | 
Cc1ccc2c(c1)[nH]c(=S)n2C=C(C(N)=O)C(N)=O | > 100 | > 100 µM |  | > 100 µM |  | > 100 | > 100 µM | > 100 µM | > 100 µM |  |  | > 100 | > 100 |  |  |  |  |  |  | 
C=C1C(=O)[C@@]23CC[C@H]4[C@@](C)(CCC[C@@]4(C)C(=O)OC)[C@@H]2CC[C@]1(O)C3 | 3.09 | 10.4 µM and 10.6 µM | > 100 | 1.35 µM and 0.967 µM | 2.94 | 7.97 | 21.9 µM and 18.1 µM | 16.6 µM and 27.5 µM | 3 µM and 4.03 µM | 1.35 µM and 3.79 µM |  | 2.87 |  | 1.49 | 0.27 | 0.326 | 3.06 | 9.14 | 4.79 | 1.63
Cc1ccc(-c2n[nH]c(Cc3nc(-c4ccc(C)cc4)n[nH]3)n2)cc1 |  | > 100 µM | > 100 |  | > 100 | > 100 | > 100 µM | > 100 µM | > 100 µM | > 100 µM | > 100 | > 100 |  |  |  |  |  |  |  | 
CCCCCCNC(=O)C(C)C1CCC2(C)C=CC(=O)C(C)=C2C1O (stereo not given) | > 100 | > 100 µM | > 100 | > 100 µM | > 100 | > 100 | > 100 µM | > 100 µM | > 100 µM | > 100 µM |  | > 100 |  |  |  |  |  |  |  | 
CC1=CC(=O)[C@@H](O)[C@]2(C)[C@H]3[C@@]4(O)OC[C@]35[C@H]([C@@H](C)[C@H]4O)[C@@H](OC(=O)C(C)(C)CO)C(=O)O[C@@H]5C[C@@H]12 | 5.39 | 41.5 µM |  | > 100 µM | 0.417 | 2.23 | 1.71 µM | 0.626 µM | 2.44 µM | > 100 µM | 4.84 | 51.3 |  |  |  |  |  |  |  | 
N/C(=N\N=C/c1ccc(O)c(O)c1O)NO | > 100 | > 100 µM | > 58.1 | 41.4 µM | 52.9 | 33.5 | > 40 µM | > 100 µM | > 100 µM | 32.9 µM |  | 40.3 |  |  |  |  |  |  |  | 
COc1cc(NC(C)c2ccc3c(c2)OCCO3)cc(OC)c1OC (stereo not given) | > 100 | > 100 µM |  | 48.6 µM | 48.9 | > 100 | > 100 µM | > 100 µM | > 100 µM | > 100 µM | > 100 | 91.4 |  |  |  |  |  |  |  | 
O=C(Nc1ccccc1)OCCN=C1c2ccccc2C(Br)C(Br)c2ccccc21 (stereo not given) | 18.1 | 25.4 µM | 5.3 | 3.85 µM | 8.41 | 9.69 | > 31.6 µM | 27 µM | 3.61 µM | > 31.6 µM | > 31.6 | 19.4 |  |  |  |  |  |  |  | 
Cc1c2n(c(=O)[nH]c1=O)C1OC(CO)C(O2)C1N=[N+]=[N-] (stereo not given) | > 100 | > 100 µM | > 100 | > 100 µM | > 100 |  | > 100 µM | > 100 µM | > 100 µM |  |  |  |  |  |  |  |  |  |  | 

From PubChem BioAssay (NCI)
